Publication PMC11990670, “Exploring the Volatility, Phase Transitions, and Solubility Properties of Five Halogenated Benzaldehydes” (Molecules, 2025)
≈ marks a conversion by molar mass, not a printed value. Read-outs that look alike come from different tables or passages of the source.

Key:
[1] = Equilibrium solubility in water, saturation shake-flask method with UV-vis; details: 25 °C, thermodynamic from solid
Description: The concentration was measured by absorbances at 260 nm for 4-chlorobenzaldehyde, 263 nm for 4-bromobenzaldehyde and 2,4-dichlorobenzaldehyde, 297 nm for 2,6-dichlorobenzaldehyde, and 306 nm for 2,3-dichlorobenzaldehyde, using a Cary-60 UV–vis (Agilent) spectrophotometer. X-ray diffraction (XRD) and differential scanning calorimetry of residual solids were used to identify the eventual phase transformations. The purified samples of each compound studied were used for all experimental determinations, including the solubility measurements. After reaching the equilibrium, the residual solid was dried and analyzed using both DSC and XRD. The melting properties obtained from DSC were compared with those of the original purified sample, following the same procedure for the XRD analysis. […] As an example, the supporting information includes two thermograms and two XRD patterns for 2,4-dichlorobenzaldehyde (Figures S1 and S2). […] Equation (4) was derived from Equation (5), which is widely applicable to the solubility of solids.(4) ΔhydrGm°/kJ·mol^−1=9.17−5.71·log10(Scr/mol·m^−3)−ΔcrgGm°/kJ·mol^−1 (5) S=p^°/RTexpΔcrgGm°+ΔhydrGm°/−RT
An excess amount of each compound was added to a known volume of water in triplicate. […] After stirring, the solid phase was allowed to settle for 2 h. The pH of the saturated solutions was measured using a Mettler Toledo (Greifensee, Switzerland) FiveEasy F20 pH Meter calibrated with standard aqueous solutions (pH 7.00 and 4.01 or 10.1). Those solutions were then filtered through a 0.22 μm syringe hydrophilic filter (13 mm, PTFE, Labfil, Zhejiang, China) and diluted to the required concentration. The concentration of the compounds, expressed in molarity, was measured by absorbances using a Cary-60 UV–vis spectrophotometer (Agilent Technologies, Santa Clara, CA, USA) at 298.15 K (single cell Peltier accessory, ±0.15 K). The results reported in Table 6 are averaged from at least three replicates. Calibration was performed using solutions of known concentrations of each substance in water. These solutions were prepared by adding a precise mass of the substance and a specific volume of the solvent to a flask, then mixing until the substance was fully dissolved. The absorbance of these solutions was measured, and calibration curves were created.

[2] = Thermodynamic properties of sublimation and vaporization from Clarke and Glew fit of vapor pressures
Text: The experimental crystalline and liquid vapor pressures were independently fitted by the Clarke and Glew Equation (1) in its truncated form:(1) Rlnp/p^°=−ΔcdgGm°θ/θ+ΔcdgHm°θ1/θ−1/T+ΔcdgCp,m°θθ/T−1+lnT/θ where R is the molar gas constant, p is the vapor pressure at the temperature T, p° is a selected reference pressure (p° = 10^5 Pa in this work), and θ is a reference temperature. The differences between gaseous and condensed phases of standard molar Gibbs energy, enthalpy, and the isobaric heat capacity are represented, respectively, by ΔcdgGm° , ΔcdgHm° , and ΔcdgCp,m° .
The values of ΔcdgCp,m° are generally achieved only when accurate experimental data measured over ca. 50 K are reachable. […] For comparison reasons, the values of ΔcrgCp,m° were also calculated as ΔcrgCp,m°(θ)=Cp,m°(g)−Cp,m°(cr) , where the terms Cp,m°(g) and Cp,m°(cr) are, respectively, the gas and crystalline isobaric molar heat capacities. […] The crystalline molar heat capacities, Cp,m°(cr) , were determined at different temperatures using differential scanning calorimetry, enabling the fit to second-order polynomials in temperature, represented by Equation (3) and reported in Table 3. […] The values of Cp,m°(cr,298.15 K) were derived from these equations, allowing ΔcrgCp,m°(298.15 K) to be calculated.

[3] = cited from earlier work
[4] = crystalline phase, θ = 298.15 K
[5] = crystalline phase, θ = 298.15 K, p° = 10^5 Pa
[6] = crystalline phase, θ = 315.46 K (mean temperature)
[7] = crystalline phase, θ = 342.99 K (triple point)
[8] = liquid phase including supercooled liquid, θ = 298.15 K
[9] = liquid phase including supercooled liquid, θ = 298.15 K, p° = 10^5 Pa
[10] = liquid phase, θ = 342.99 K (triple point)
[11] = liquid phase, θ = 358.95 K (mean temperature)
[12] = crystalline phase, θ = 313.72 K (mean temperature)
[13] = crystalline phase, θ = 343.90 K (triple point)
[14] = liquid phase, θ = 343.90 K (triple point)
[15] = liquid phase, θ = 350.04 K (mean temperature)
[16] = crystalline phase, θ = 307.92 K (mean temperature)
[17] = crystalline phase, θ = 334.82 K (triple point)
[18] = liquid phase, θ = 334.82 K (triple point)
[19] = liquid phase, θ = 354.31 K (mean temperature)
[20] = crystalline phase, θ = 303.88 K (mean temperature)
[21] = crystalline phase, θ = 330.02 K (triple point)
[22] = liquid phase, θ = 330.02 K (triple point)
[23] = liquid phase, θ = 345.37 K (mean temperature)

In the case of O=Cc1c(Cl)cccc1Cl [2,6-Dichlorobenzaldehyde], the solubility at 72 h [1] is reported as 1130 µM (≈ 197 µg/mL), the “triple point pressure ptp” value ([2]; Ttp = 342.99 K) is reported as 85.7 Pa and the “p (Equation (1)) vapor pressure” value [2, 4] is reported as 0.95 Pa. For the same molecule, the “ΔcdgGm°(θ) standard molar Gibbs energy of sublimation” value [2, 5] was 28.66 ± 0.01 kJ/mol, the “ΔcdgHm°(θ) standard molar enthalpy of sublimation” value [2, 5] was 85.9 ± 0.4 kJ/mol and the “ΔcdgSm°(θ) (Equation (2)) standard molar entropy of sublimation” value (“ΔcdgSm°(θ) … of sublimation” below) [2, 5] was 192.0 ± 1.3 J·K^−1·mol^−1. The “p (Equation (1)) vapor pressure” value [2, 6] was 6.35 Pa, the “ΔcdgGm°(θ) standard molar Gibbs energy of sublimation” value [2, 6] was 25.35 ± 0.01 kJ/mol and the “ΔcdgHm°(θ) standard molar enthalpy of sublimation” value [2, 6] was 85.4 ± 0.1 kJ/mol. The “p (Equation (1)) vapor pressure” value [2, 7] was 85.7 Pa, the “ΔcdgGm°(θ) standard molar Gibbs energy of sublimation” value [2, 7] was 20.14 ± 0.02 kJ/mol and the “ΔcdgHm°(θ) standard molar enthalpy of sublimation” value [2, 7] was 84.5 ± 0.7 kJ/mol. For the same molecule, the “p (Equation (1)) vapor pressure” value [2, 8] was 2.84 Pa, the “ΔcdgGm°(θ) standard molar Gibbs energy of vaporization” value [2, 9] was 25.95 ± 0.10 kJ/mol and the “ΔcdgHm°(θ) standard molar enthalpy of vaporization” value [2, 9] was 66.2 ± 1.2 kJ/mol. For the same molecule, the “ΔcdgSm°(θ) (Equation (2)) standard molar entropy of vaporization” value (from here on “ΔcdgSm°(θ) … of vaporization”) [2, 9] was 135.0 ± 4.0 J·K^−1·mol^−1, the “p (Equation (1)) vapor pressure” value [2, 10] was 85.7 Pa and the “ΔcdgGm°(θ) standard molar Gibbs energy of vaporization” value [2, 10] was 20.14 ± 0.02 kJ/mol. The “ΔcdgHm°(θ) standard molar enthalpy of vaporization” value [2, 10] was 62.7 ± 0.3 kJ/mol, the “p (Equation (1)) vapor pressure” value [2, 11] was 225 Pa and the “ΔcdgGm°(θ) standard molar Gibbs energy of vaporization” value [2, 11] was 18.19 ± 0.01 kJ/mol. The “ΔcdgHm°(θ) standard molar enthalpy of vaporization” value [2, 11] was 61.4 ± 0.1 kJ/mol.

With O=Cc1ccc(Cl)cc1Cl [2,4-Dichlorobenzaldehyde] the solubility at 72 h [1] was 821 µM (≈ 144 µg/mL), the “triple point pressure ptp” value ([2]; Ttp = 343.90 K) was 2.01 × 10^2 Pa and the “p (Equation (1)) vapor pressure” value [2, 4] was 2.64 Pa. The “ΔcdgGm°(θ) standard molar Gibbs energy of sublimation” value [2, 5] was 26.13 ± 0.01 kJ/mol, the “ΔcdgHm°(θ) standard molar enthalpy of sublimation” value [2, 5] was 81.5 ± 0.2 kJ/mol and the “ΔcdgSm°(θ) … of sublimation” value [2, 5] was 185.7 ± 0.7 J·K^−1·mol^−1. The “p (Equation (1)) vapor pressure” value [2, 12] was 13.5 Pa, the “ΔcdgGm°(θ) standard molar Gibbs energy of sublimation” value [2, 12] was 23.25 ± 0.01 kJ/mol and the “ΔcdgHm°(θ) standard molar enthalpy of sublimation” value [2, 12] was 81.0 ± 0.1 kJ/mol. For the same molecule, the “p (Equation (1)) vapor pressure” value [2, 13] was 201 Pa, the “ΔcdgGm°(θ) standard molar Gibbs energy of sublimation” value [2, 13] was 17.75 ± 0.02 kJ/mol and the “ΔcdgHm°(θ) standard molar enthalpy of sublimation” value [2, 13] was 80.0 ± 0.5 kJ/mol. For the same molecule, the “p (Equation (1)) vapor pressure” value [2, 8] was 7.95 Pa, the “ΔcdgGm°(θ) standard molar Gibbs energy of vaporization” value [2, 9] was 23.40 ± 0.05 kJ/mol and the “ΔcdgHm°(θ) standard molar enthalpy of vaporization” value [2, 9] was 61.9 ± 0.7 kJ/mol. For the same molecule, the “ΔcdgSm°(θ) … of vaporization” value [2, 9] was 129.1 ± 2.4 J·K^−1·mol^−1, the “p (Equation (1)) vapor pressure” value [2, 14] was 201 Pa and the “ΔcdgGm°(θ) standard molar Gibbs energy of vaporization” value [2, 14] was 17.75 ± 0.02 kJ/mol. The “ΔcdgHm°(θ) standard molar enthalpy of vaporization” value [2, 14] was 58.5 ± 0.1 kJ/mol, the “p (Equation (1)) vapor pressure” value [2, 15] was 289 Pa and the “ΔcdgGm°(θ) standard molar Gibbs energy of vaporization” value [2, 15] was 17.02 ± 0.01 kJ/mol. The “ΔcdgHm°(θ) standard molar enthalpy of vaporization” value [2, 15] was 58.0 ± 0.1 kJ/mol.

For O=Cc1cccc(Cl)c1Cl [2,3-Dichlorobenzaldehyde], the solubility at 72 h [1] was 853 µM (≈ 149 µg/mL), the “triple point pressure ptp” value ([2]; Ttp = 334.82 K) was 87.6 Pa and the “p (Equation (1)) vapor pressure” value [2, 4] was 2.47 Pa. The “ΔcdgGm°(θ) standard molar Gibbs energy of sublimation” value [2, 5] was 26.30 ± 0.01 kJ/mol, the “ΔcdgHm°(θ) standard molar enthalpy of sublimation” value [2, 5] was 81.2 ± 0.3 kJ/mol and the “ΔcdgSm°(θ) … of sublimation” value [2, 5] was 184.1 ± 1.0 J·K^−1·mol^−1. For the same molecule, the “p (Equation (1)) vapor pressure” value [2, 16] was 6.98 Pa, the “ΔcdgGm°(θ) standard molar Gibbs energy of sublimation” value [2, 16] was 24.50 ± 0.01 kJ/mol and the “ΔcdgHm°(θ) standard molar enthalpy of sublimation” value [2, 16] was 81.0 ± 0.2 kJ/mol. The “p (Equation (1)) vapor pressure” value [2, 17] was 87.6 Pa, the “ΔcdgGm°(θ) standard molar Gibbs energy of sublimation” value [2, 17] was 19.60 ± 0.03 kJ/mol and the “ΔcdgHm°(θ) standard molar enthalpy of sublimation” value [2, 17] was 80.2 ± 0.4 kJ/mol. The “p (Equation (1)) vapor pressure” value [2, 8] was 5.81 Pa, the “ΔcdgGm°(θ) standard molar Gibbs energy of vaporization” value [2, 9] was 24.18 ± 0.08 kJ/mol and the “ΔcdgHm°(θ) standard molar enthalpy of vaporization” value [2, 9] was 62.7 ± 1.1 kJ/mol. The “ΔcdgSm°(θ) … of vaporization” value [2, 9] was 129.2 ± 3.7 J·K^−1·mol^−1, the “p (Equation (1)) vapor pressure” value [2, 18] was 87.6 Pa and the “ΔcdgGm°(θ) standard molar Gibbs energy of vaporization” value [2, 18] was 19.60 ± 0.03 kJ/mol. For the same molecule, the “ΔcdgHm°(θ) standard molar enthalpy of vaporization” value [2, 18] was 60.0 ± 0.4 kJ/mol, the “p (Equation (1)) vapor pressure” value [2, 19] was 282 Pa and the “ΔcdgGm°(θ) standard molar Gibbs energy of vaporization” value [2, 19] was 17.29 ± 0.01 kJ/mol. The “ΔcdgHm°(θ) standard molar enthalpy of vaporization” value [2, 19] was 58.6 ± 0.1 kJ/mol.

In the case of O=Cc1ccc(Br)cc1 [4-Bromobenzaldehyde], the solubility at 72 h [1] is reported as 3710 µM (≈ 687 µg/mL), the “triple point pressure ptp” value ([2]; Ttp = 330.02 K) is reported as 99.1 Pa and the “p (Equation (1)) vapor pressure” value [2, 4] is reported as 4.59 Pa. The “ΔcdgGm°(θ) standard molar Gibbs energy of sublimation” value [2, 5] was 24.76 ± 0.01 kJ/mol, the “ΔcdgHm°(θ) standard molar enthalpy of sublimation” value [2, 5] was 79.4 ± 0.2 kJ/mol and the “ΔcdgSm°(θ) … of sublimation” value [2, 5] was 183.3 ± 0.7 J·K^−1·mol^−1. For the same molecule, the “p (Equation (1)) vapor pressure” value [2, 20] was 8.40 Pa, the “ΔcdgGm°(θ) standard molar Gibbs energy of sublimation” value [2, 20] was 23.71 ± 0.01 kJ/mol and the “ΔcdgHm°(θ) standard molar enthalpy of sublimation” value [2, 20] was 79.2 ± 0.2 kJ/mol. The “p (Equation (1)) vapor pressure” value [2, 21] was 99.1 Pa, the “ΔcdgGm°(θ) standard molar Gibbs energy of sublimation” value [2, 21] was 18.98 ± 0.03 kJ/mol and the “ΔcdgHm°(θ) standard molar enthalpy of sublimation” value [2, 21] was 78.2 ± 0.7 kJ/mol. For the same molecule, the “p (Equation (1)) vapor pressure” value [2, 8] was 9.57 Pa, the “ΔcdgGm°(θ) standard molar Gibbs energy of vaporization” value [2, 9] was 22.94 ± 0.05 kJ/mol and the “ΔcdgHm°(θ) standard molar enthalpy of vaporization” value [2, 9] was 61.2 ± 0.7 kJ/mol. For the same molecule, the “ΔcdgSm°(θ) … of vaporization” value [2, 9] was 128.3 ± 2.4 J·K^−1·mol^−1, the “p (Equation (1)) vapor pressure” value [2, 22] was 99.1 Pa and the “ΔcdgGm°(θ) standard molar Gibbs energy of vaporization” value [2, 22] was 18.98 ± 0.03 kJ/mol. For the same molecule, the “ΔcdgHm°(θ) standard molar enthalpy of vaporization” value [2, 22] was 58.6 ± 0.3 kJ/mol, the “p (Equation (1)) vapor pressure” value [2, 23] was 254 Pa and the “ΔcdgGm°(θ) standard molar Gibbs energy of vaporization” value [2, 23] was 17.16 ± 0.01 kJ/mol. The “ΔcdgHm°(θ) standard molar enthalpy of vaporization” value [2, 23] was 57.4 ± 0.1 kJ/mol, the “water solubility, estimated value” ([3]; ALI method) was 7.06 mM (≈ 1310 µg/mL) and the “water solubility, estimated value” ([3]; ESOL method) was 1.68 mM (≈ 311 µg/mL). The “water solubility, estimated value” ([3]; SILICO-IT method) was 0.634 mM (≈ 117 µg/mL).
